This is an account of results in article PMC4522185 (ChemistryOpen, 2015).

Series [1] concerns the target T1, Mtb 20S open-gate proteasome (Mycobacterium tuberculosis, UniProt P9WHT9). Briefly: biochemical.
Series [2] in a line: physchem. Conditions: ch3cn+pbs (1+1), pH 7.4.
A short description of series [3]: physchem. Conditions: pbs, pH 7.4, aqueous buffer.
In series [4] the target is human 20S proteasome (chymotrypsin-like activity, with PA28 activator) (Homo sapiens, UniProt P28074). The series is described as follows: fluorogenic suc-LLVY-AMC cleavage. The class given is biochemical.
Chain of human 20S proteasome (chymotrypsin-like activity, with PA28 activator) (P28074 60-263): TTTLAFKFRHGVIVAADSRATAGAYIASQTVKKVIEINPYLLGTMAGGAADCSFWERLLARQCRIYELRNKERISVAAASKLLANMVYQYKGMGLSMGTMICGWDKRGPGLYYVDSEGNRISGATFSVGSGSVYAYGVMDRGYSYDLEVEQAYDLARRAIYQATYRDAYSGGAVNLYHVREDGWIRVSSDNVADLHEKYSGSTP
Chain of human 20S proteasome (chymotrypsin-like activity, with PA28 activator) (P25786 whole entry partner): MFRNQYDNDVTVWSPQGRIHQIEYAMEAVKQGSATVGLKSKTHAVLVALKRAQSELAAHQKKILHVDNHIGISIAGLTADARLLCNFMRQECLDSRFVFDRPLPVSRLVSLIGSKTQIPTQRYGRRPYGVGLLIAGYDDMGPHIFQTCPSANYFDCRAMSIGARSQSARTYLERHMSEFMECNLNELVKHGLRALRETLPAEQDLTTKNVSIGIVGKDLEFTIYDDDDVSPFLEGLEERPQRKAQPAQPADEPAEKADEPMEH
The nature of series [5]: physchem. Conditions: pbs ph 7.4, pH 7.4.
Series [6] addresses T1, Mtb 20S open-gate proteasome. The series is described as follows: biochemical. The source holds these as a separate data set.
The target is the same in series [7]. Briefly: biochemical. This is another data set of the same source.
Series [8] is described as follows: physchem. The conditions noted are these: ch3cn+pbs (1+1), pH 7.4. This is another data set of the same source.
Series [9] is described as follows: physchem. The conditions noted are these: pbs, pH 7.4, aqueous buffer. The source holds these as a separate data set.

≈ marks a conversion by molar mass, not a printed value. Read-outs that look alike come from different tables or passages of the source.

T1 sequence (P9WHT9 whole entry): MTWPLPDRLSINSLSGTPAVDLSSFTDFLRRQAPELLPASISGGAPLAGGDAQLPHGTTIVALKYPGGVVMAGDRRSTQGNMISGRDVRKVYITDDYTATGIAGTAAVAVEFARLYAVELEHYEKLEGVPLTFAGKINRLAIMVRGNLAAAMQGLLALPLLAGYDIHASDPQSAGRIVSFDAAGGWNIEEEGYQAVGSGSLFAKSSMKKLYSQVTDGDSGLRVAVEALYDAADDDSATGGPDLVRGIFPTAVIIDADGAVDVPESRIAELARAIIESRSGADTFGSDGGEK
T1 sequence (P9WHU1 whole entry partner): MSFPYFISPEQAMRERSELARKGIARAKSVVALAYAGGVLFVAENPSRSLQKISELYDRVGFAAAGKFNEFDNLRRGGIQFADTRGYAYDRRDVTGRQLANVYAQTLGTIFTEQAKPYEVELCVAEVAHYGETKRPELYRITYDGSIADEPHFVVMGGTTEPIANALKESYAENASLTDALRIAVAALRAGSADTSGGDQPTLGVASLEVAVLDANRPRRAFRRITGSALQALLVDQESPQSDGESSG

As usually defined, the IC50 is the concentration needed to halve the response being measured. Lower therefore signals inhibition by little substance. One may read the fraction remaining as the share of the starting amount still present when the sample was taken. In general, solubility refers to the concentration that dissolves in the medium under given conditions. A higher solubility goes with much dissolved substance. `O=c1oc(-c2cnccn2)ns1` [compound 2] came in with an IC50 in series [1] of 2300 nM. In “physchem [2]”, the share remaining at 24 h, 50 µM came to 3.6%. Further, the solubility at 18 h in the series “physchem [3]” is 35.1 µM (≈ 6.36 µg/mL).

As to `COc1cccc(-c2nsc(=O)o2)c1` [compound 3], in [1], the IC50 was found to be 665 nM. Besides, the share remaining at 24 h, 50 µM in the series “physchem [2]” was determined as 15.4%. The solubility at 18 h in “physchem [3]” stood at 30.9 µM (≈ 6.47 µg/mL).

As to `O=c1oc(/C=C/c2ccccc2)ns1` [compound 17, (E)-5-Styryl-1,3,4-oxathiazol-2-one], the IC50 in series [1] was 420 nM; in [4], over 100000 nM. Further, the amount remaining at 24 h, 50 µM in the series “physchem [2]” stood at 38.7%. Further, the concentration in solution in “physchem [3]” (solubility at 18 h) was 19.1 µM (≈ 3.92 µg/mL).

Take `O=C(c1ccccc1)c1nsc(=O)o1` [compound 19, 5-Benzoyl-1,3,4-oxathiazol-2-one]: the values for the IC50 in [1] and in series [4] were 2250 nM and 2950 nM, respectively. Besides, the amount remaining at 24 h, 50 µM in “physchem [2]” turned out to be 46.8%. Moreover, in the series “physchem [3]”, the solubility at 18 h was determined as 5.7 µM (≈ 1.18 µg/mL).

On to `O=c1oc(C#Cc2ccccc2)ns1` [compound 20, 5-(Phenylethynyl)-1,3,4-oxathiazol-2-one], for which the figures for the IC50 in series [1] and in series [4] were 1040 nM and 4200 nM, respectively. Further, the fraction remaining at 24 h, 50 µM in “physchem [2]” was 89.6%. Also, the concentration in solution in “physchem [3]” (solubility at 18 h) came to 24.9 µM (≈ 5.06 µg/mL).

With `COc1ccc(/C=C/c2nsc(=O)o2)cc1` [compound 28, (E)-5-(4-Methoxystyryl)-1,3,4-oxathiazol-2-one], the IC50 was 8500 nM in series [4] and 1350 nM in series [6]. Also, in “physchem [5]”, the fraction remaining at 24 h, 50 µM came to 1.5%.

For `O=c1oc(/C=C/c2ccncc2)ns1` [compound 49, (E)-5-(2-(Pyridin-4-yl)vinyl)-1,3,4-oxathiazol-2-one], the concentration for half-maximal inhibition (IC50) worked out at 77000 nM in series [4] and 2750 nM in [7]. In addition, in “physchem [8]”, the amount remaining at 24 h, 50 µM stood at 91.6%. The same compound gave a solubility at 18 h in the series “physchem [9]” of 84.7 µM (≈ 17.5 µg/mL).

The compound `COc1ncccc1/C=C/c1nsc(=O)o1` [compound 50, (E)-5-(2-(2-Methoxypyridin-3-yl)vinyl)-1,3,4-oxathiazol-2-one] had an IC50 in series [4] of 29500 nM. Also, the share remaining at 24 h, 50 µM in the series “physchem [8]” came out at 97.7%. The compound further showed a solubility at 18 h in “physchem [9]” of 2.1 µM (≈ 0.496 µg/mL).

Regarding `O=c1oc(/C=C/c2cccs2)ns1` [compound 51, (E)-5-(2-(Thiophen-2-yl)vinyl)-1,3,4-oxathiazol-2-one], the IC50 in series [4] is 18500 nM; in [7], 2100 nM. Further, the share remaining at 24 h, 50 µM in the series “physchem [8]” amounted to 97.6%. The compound also showed a solubility at 18 h in “physchem [9]” of 22.6 µM (≈ 4.77 µg/mL).

Regarding `O=c1oc(/C=C/c2ccsc2)ns1` [compound 52, (E)-5-(2-(Thiophen-3-yl)vinyl)-1,3,4-oxathiazol-2-one], the IC50 in [4] was 11300 nM; in series [7], 1150 nM. The share remaining at 24 h, 50 µM in the series “physchem [8]” was 99.1%. In “physchem [9]”, the solubility at 18 h is 19.7 µM (≈ 4.16 µg/mL).

For the compound `O=Cc1ccc(/C=C/c2nsc(=O)o2)o1` [compound 53, (E)-5-(2-(2-Oxo-1,3,4-oxathiazol-5-yl)vinyl)furan-2-carbaldehyde], the figures for the IC50 in series [4] and in [7] were 3300 nM and 735 nM, respectively. Besides, the amount remaining at 24 h, 50 µM in “physchem [8]” was determined as 88.9%. The concentration in solution in “physchem [9]” (solubility at 18 h) was 56.1 µM (≈ 12.5 µg/mL).
